Results from PubChem BioAssay (NCI).
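Exposure lasted 48 hours, with cells grown in 96-well plates and compounds tested at five concentrations. Here, GI50 denotes the concentration required for 50% inhibition of growth. TGI denotes the concentration required for complete inhibition of growth.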

Columns and labels:
Experiment in all cases: DTP human tumour cell line panel, 48 h
DMS 114 small cell lung = test system: DMS 114 small cell lung
DMS 273 small cell lung = test system: DMS 273 small cell lung
HOP-18 NSCLC = test system: HOP-18 NSCLC
LXFL 529 NSCLC = test system: LXFL 529 NSCLC
SNB-78 CNS = test system: SNB-78 CNS
MDA-N = test system: MDA-N
KM20L2 colon = test system: KM20L2 colon
RXF-631 renal = test system: RXF-631 renal
XF 498 CNS = test system: XF 498 CNS

Compound	TGI (DMS 114 small cell lung)	TGI (DMS 273 small cell lung)	TGI (HOP-18 NSCLC)	TGI (LXFL 529 NSCLC)	TGI (SNB-78 CNS)	TGI (MDA-N)	TGI (KM20L2 colon)	TGI (XF 498 CNS)	also measured
COC12OCCN(C)C1=CC(=O)C1(C)N=NCC12 (stereo not drawn)	> 100 µM	> 100 µM	> 100 µM	> 100 µM	> 100 µM	–	–	–	–
O=[N+]([O-])c1oc2ccc3ccccc3c2c1CCO	–	–	–	–	–	4.07 µM	–	–	–
CN1CCN(CCCN2c3ccccc3Sc3ccc(Cl)cc32)CC1	–	–	–	–	–	61.4 µM	–	–	GI50 (MDA-N): 42.1 µM
CC(C)c1ccc(/C=C/c2cc(C(=O)NNC(=O)NC3CCCCC3)nc(=S)[nH]2)cc1	> 100 µM	> 100 µM	> 100 µM	> 100 µM	> 100 µM	–	> 100 µM	> 100 µM	TGI (RXF-631 renal): > 100 µM
COc1cccc(C2SCc3nc4ccccc4n32)c1 (stereo not drawn)	> 100 µM	> 100 µM	> 100 µM	–	> 100 µM	–	–	–	–
Cc1ccc(S(=O)(=O)OCCOCCOCCOCCOCCOS(=O)(=O)c2ccc(C)cc2)cc1	–	> 100 µM	> 100 µM	> 100 µM	> 100 µM	–	> 100 µM	–	TGI (RXF-631 renal): 82.2 µM
C=C1C(=O)C2=CC1CCC(=O)C1(C)CCC(OC(C)=O)C(C)(C)C1CC2O (stereo not drawn)	–	–	–	–	–	4.41 µM	–	–	–
COc1cc(O)c2c(c1)C(=O)C1=C(C2=O)C(O)C[C@@](C)(O)C1 (stereo partly drawn)	3.26 µM	5.04 µM	–	2.1 µM	4.67 µM	–	11.6 µM	3.46 µM	–
COc1ccc2c(c1)[n+]([O-])c(/C(C)=N/NC(=O)c1ccccc1O)c(C)[n+]2[O-]	> 100 µM	–	> 100 µM	> 100 µM	> 100 µM	–	> 100 µM	> 100 µM	TGI (RXF-631 renal): > 100 µM
O=C1C(c2ccccc2)=C(c2ccccc2)C(c2ccc(Sc3ccc(C4=C(c5ccccc5)C(=O)C(c5ccccc5)=C4c4ccccc4)cc3)cc2)=C1c1ccccc1	> 100 µM	> 100 µM	–	–	> 100 µM	–	> 100 µM	> 100 µM	TGI (RXF-631 renal): > 100 µM
COC(=O)C1[C@H](c2ccc3c(c2)OCO3)OC(=O)[C@]1(C(=O)OC)C(=O)c1ccc(OC)c(OC)c1 (stereo partly drawn)	–	71.6 µM	> 100 µM	> 100 µM	> 100 µM	–	> 100 µM	> 100 µM	–
O=C(CSSCC(=O)Nc1ccc(Br)cc1)Nc1ccc(Br)cc1	28.2 µM	30.8 µM	–	31.2 µM	32.5 µM	–	29.2 µM	34.5 µM	–
O=[N+]([O-])C=C1c2ccccc2-c2ccccc21	–	–	–	28.2 µM	31.1 µM	–	34.5 µM	–	–
CCOC(=O)CN(c1ccccc1)c1nc(=[N+](C)C)ss1	27.7 µM	33.8 µM	> 100 µM	–	> 100 µM	–	> 100 µM	–	–
CC(C)=NNC(=S)NC12CC3CC(CC(C3)C1)C2	–	> 100 µM	–	> 100 µM	> 100 µM	–	> 100 µM	> 100 µM	TGI (RXF-631 renal): > 100 µM
[Cu+2].[NH-]C(CC(=O)O)C(=O)O.[NH-]C(CC(=O)O)C(=O)O (stereo not drawn)	–	–	–	–	–	> 100 µM	–	–	GI50 (MDA-N): > 100 µM
N#CCc1nnc(N)o1	–	> 100 µM	–	> 100 µM	> 100 µM	–	> 100 µM	> 100 µM	TGI (RXF-631 renal): > 100 µM

Compound	TGI (DMS 114 small cell lung)	TGI (DMS 273 small cell lung)	TGI (HOP-18 NSCLC)	TGI (LXFL 529 NSCLC)	TGI (SNB-78 CNS)	TGI (MDA-N)	TGI (KM20L2 colon)	TGI (XF 498 CNS)	also measured
CC[PH+](CC)CC.CC[PH+](CC)CC.[Au]	–	38.3 µM	22.1 µM	6.33 µM	53.1 µM	–	33.3 µM	26.4 µM	GI50 (DMS 273 small cell lung): 17 µM; GI50 (HOP-18 NSCLC): 8 µM; GI50 (KM20L2 colon): 17.3 µM; GI50 (LXFL 529 NSCLC): 2.31 µM; GI50 (SNB-78 CNS): 6.82 µM; GI50 (XF 498 CNS): 11 µM
CC1=C(C(=O)CC(=O)C(=O)Nc2ccc(C)c(C)c2)Sc2ccccc2N1	> 100 µM	> 100 µM	> 100 µM	> 100 µM	> 100 µM	–	> 100 µM	> 100 µM	–
O=C(O)Cc1ccc(N=Nc2c(O)c(C(=O)O)cc3ccccc23)cc1	–	–	–	–	–	> 100 µM	–	–	–
CCOC(=O)C1SC(=Nc2ccc(Cl)cc2Cl)N=C1C (stereo not drawn)	> 100 µM	> 100 µM	> 100 µM	> 100 µM	> 100 µM	–	> 100 µM	94.1 µM	–
CN1C(=O)C2(c3ccccc31)C1CC3C(CO1)C1C2C3(CO)CN1C#N (stereo not drawn)	–	–	–	–	–	> 100 µM	–	–	–
CN(C)c1ccccc1[CH2][Ga]([Cl])[CH2]c1ccccc1N(C)C	–	–	–	–	–	3.08 µM	–	–	GI50 (MDA-N): 1.66 µM
O=C1C(=O)N(c2ccc(Cl)cc2)C(=O)C(=Nc2cccc3c(=O)[nH][nH]c(=O)c23)C1c1nc2ccccc2o1 (stereo not drawn)	–	> 100 µM	> 100 µM	> 100 µM	> 100 µM	–	> 100 µM	–	TGI (RXF-631 renal): > 100 µM
O=c1cccc2n1CC1CNC[C@H]2C1	–	–	–	–	–	> 100 µM	–	–	–
CN(/N=C\c1ccnc2ccccc12)c1ccccc1	48.7 µM	39.7 µM	> 100 µM	79.7 µM	> 100 µM	–	–	47.5 µM	–
Cc1ccc(C2=Nc3ccccc3S(=O)C(c3ccc4c(c3)OCO4)C2)cc1 (stereo not drawn)	–	> 100 µM	> 100 µM	> 10 µM	86.9 µM	–	33 µM	36.1 µM	–
COc1ccc(OC)c(/C=C/c2ccnc3ccccc23)c1	–	–	–	–	–	0.286 µM	–	–	–
CC1(C)CCC(C)(C)c2cc(NC(=O)c3ccc(C(=O)O)cc3)ccc21	–	–	–	–	–	> 100 µM	–	–	–
C=C1CC2(CCS(=O)(=O)c3ccccc32)OC1=O (stereo not drawn)	14.2 µM	30.5 µM	14.7 µM	15.9 µM	33.6 µM	–	28.6 µM	26.1 µM	TGI (RXF-631 renal): 43.4 µM
c1ccc2c(CNCCCCCCCCNCc3cccc4ccccc34)cccc2c1	3.48 µM	3.68 µM	18.5 µM	3.22 µM	4.45 µM	–	3.22 µM	3.24 µM	–
O=C(O)CN(c1ccc(F)cc1)S(=O)(=O)c1ccccc1	–	> 100 µM	> 100 µM	> 100 µM	–	–	> 100 µM	> 100 µM	TGI (RXF-631 renal): > 100 µM
OCC1CCCC1O (stereo not drawn)	–	–	–	–	–	> 100 µM	–	–	–
